The text below walks through data of patent US11339169B2, “P2X3 and/or P2X2/3 compounds and methods” (Asana BioSciences, LLC, priority 2016, dated 2022).

The structures appear in SMILES notation. pIC50: −log10 of the molar value. Several values for one entry are separate records, joined by “and”; a condition that tells them apart may be missing. Equal entries are not always repeated.

One assay concerns the target T1, hP2X3 (Homo sapiens, UniProt P56373).
T1 construct: host or cells: HEK (hP2X3-HEK)
T1 sequence (P56373 1-397): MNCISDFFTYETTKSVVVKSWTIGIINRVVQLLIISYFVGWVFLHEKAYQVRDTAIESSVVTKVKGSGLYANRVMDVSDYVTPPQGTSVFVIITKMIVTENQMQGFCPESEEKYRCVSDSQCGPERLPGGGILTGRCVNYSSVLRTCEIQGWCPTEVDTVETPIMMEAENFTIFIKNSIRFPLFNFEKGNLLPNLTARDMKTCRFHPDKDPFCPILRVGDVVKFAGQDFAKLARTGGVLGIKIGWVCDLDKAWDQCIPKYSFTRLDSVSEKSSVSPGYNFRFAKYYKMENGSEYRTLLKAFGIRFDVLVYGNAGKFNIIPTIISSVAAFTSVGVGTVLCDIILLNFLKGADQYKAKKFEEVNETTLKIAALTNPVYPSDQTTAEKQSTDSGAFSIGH
Nature of the assay: FLIPR intracellular calcium assay, hP2X3. In kind it is cell-based. The settings on record: human P2X3-HEK cells, agonist at EC75. An excerpt: (§1) The FLIPR® assay utilizes cells which express human or rat P2X3 or P2X2/3 receptors. Recombinant cells expressing hP2X3 (Cat #6188) and hP2X2/3 (Cat #6179) were procured from Chantest Corp. Rat P2X2 (NCBI Accession No: U14414) was amplified by PCR from PC12 cDNA (a rat adrenal medulla cell line). The PCR product obtained containing the protein coding sequence of rat P2X2 was cloned into EcoRV-digested and dephosphorylated vector plRES-puro3 within the multiple cloning site (MCS). See, FIG. 1A.
(§2) (i) Intracellular Calcium Assay Protocol for Screening Compounds
(§3) Cryo-vial containing 6×10^6 cells (human P2X3-HEK/human P2X2/3-TRex293/rat P2X2/3-TRex293/rat P2X3 TRex-CHO) was thawed in a 37° C. water bath. Cells were suspended in 20 mL of respective cell plating media (See annexure for composition) in a 50 mL centrifuge tube. The cell viability was checked with the help of Trypan Blue dye. Upon washing, cells were plated in a black 384-well clear bottomed, sterile poly-D-lysine coated plate such that, each well contained 10,000 cells (15,000/well for hP2X3) in 30 μL cell plating media. The plate was incubated in a 5% CO2 incubator at 37° C. for 24 h.
(§4) The next day, prior to the assay, the cell plating media was removed from each well by decanting and gentle tapping. Thirty μL of FLIPR Calcium 4 dye solution was added to each well. The plate was incubated at 37° C. for 45 min (60 min for hP2X3). The plate was next equilibrated at room temperature for 15 minutes before placing it in a 384 well FLIPR for the assay.
(§5) Compounds were dissolved in DMSO and serially diluted following 11 point half log (3.16 fold) dilution with a starting concentration of 2 mM. Dilutions were mixed with assay buffer just before performing the assay.
(§6) Compounds were added to the respective wells of the assay-ready cell plate with the help of the FLIPR and fluorescence readings were captured for 5 min to observe any possible agonistic property of the compounds. The plate was then incubated at room temperature for 15 min. The cells were stimulated with respective agonist EC75 concentration and the fluorescence readings were captured for another 5 min by FLIPR. The difference in fluorescence readings in presence of the compounds were compared with that of the control wells (wells having no compound) to calculate the inhibitory potency of the compounds. The IC50 values of the compounds were determined using the Graph pad Prism software.
(§7) (ii) Cell Plating Media for hP2X3-HEK and hP2X2/3-TRex293 Cells • DMEM/F12 (1:1) HAM media (Invitrogen; Cat #11039) • 1×NEAA (Invitrogen; Cat #11140) • 25 mM HEPES (Invitrogen; Cat #15630) • 1 mM sodium pyruvate (Invitrogen; Cat #11360) • 10% tetracycline negative FBS (PAA; Cat #A15-209) • 1 μg/mL doxycycline (Clontech; Cat #63131) [for hP2X2/3-TRex293 cells only]
(§8) (v) Assay Buffer Composition • HBSS (Invitrogen Cat #14025) • 20 mM HEPES (Invitrogen Cat #15630) • 0.01% F127 (Sigma Cat #P2443) • 1.8 mM CaCl2 (Sigma Cat #C5080) • pH adjusted to 7.4
(§9) (vi) Dye Solution Composition • 1× FLIPR Calcium 4 dye in assay buffer (Molecular devices Cat #R8141) • 1.8 mM Probenecid (Sigma Cat #P8761) • pH adjusted to 7.4

The target in the next assay is T2, hP2X2/3 (Homo sapiens, UniProt P56373+Q9UBL9).
T2 construct: host or cells: TRex293 (hP2X2/3-TRex293), doxycycline-induced
T2 sequence (P56373 1-397): T1 sequence (P56373 1-397)
T2 sequence (Q9UBL9 1-471): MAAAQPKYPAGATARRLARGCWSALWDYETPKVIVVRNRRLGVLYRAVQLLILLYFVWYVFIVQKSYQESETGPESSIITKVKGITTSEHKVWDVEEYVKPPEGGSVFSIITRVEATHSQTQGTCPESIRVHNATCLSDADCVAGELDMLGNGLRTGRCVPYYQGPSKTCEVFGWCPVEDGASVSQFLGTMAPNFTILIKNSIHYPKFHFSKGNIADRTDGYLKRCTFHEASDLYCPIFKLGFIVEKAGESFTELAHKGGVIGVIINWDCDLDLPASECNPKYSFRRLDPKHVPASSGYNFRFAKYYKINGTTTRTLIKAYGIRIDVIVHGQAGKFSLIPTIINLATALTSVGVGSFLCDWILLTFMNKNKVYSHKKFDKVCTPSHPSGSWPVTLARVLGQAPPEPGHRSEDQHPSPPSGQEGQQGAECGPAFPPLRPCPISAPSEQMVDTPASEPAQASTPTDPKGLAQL
In words: FLIPR intracellular calcium assay, hP2X2/3. In kind it is cell-based. The settings on record: human P2X2/3-TRex293 cells, agonist at EC75.
Description: as §1, §2, §3, §4, §5, §6, §7, §8, §9
On the technique in general: A change in cytosolic calcium serves as a functional read-out for many receptors and channels.

As for `CC(=O)N1CCN(c2nc(N[C@@H](c3cnc4ccccc4c3)C3CC3)c3c(cnn3C(C)C(C)C)n2)CC1` (stereo partly shown) [Example 62], the values for the pIC50 at hP2X3 and on hP2X2/3 were 7.00 to 9.00 and 6.00 to 7.00, respectively.

Turning to `CCC(CC)n1ncc2nc(N3CCN(C(N)=O)CC3)nc(NCc3cnc4ccccc4c3)c21` [Example 64], the pIC50 on hP2X3 is 7.00 to 9.00; on hP2X2/3, 5.00 to 6.00.

With `CCC(CC)n1ncc2nc(N3CCN(C(C)=O)CC3)nc(NC(c3cnc4ccc(F)cc4c3)C3CC3)c21` (stereo not shown) [Example 65], the pIC50 on hP2X3 is 7.00 to 9.00; at hP2X2/3, 6.00 to 7.00.

`CC(C)n1ncc2nc(N3CCN(C(N)=O)CC3)nc(N[C@@H](c3cnc4ccccc4c3)C3CC3)c21` [Example 66]: the pIC50 on hP2X3 is 7.00 to 9.00; on hP2X2/3, 6.00 to 7.00.

On to `CC[C@H](C)n1ncc2nc(N3CCN(C(N)=O)CC3)nc(NC(C)c3cnc4cc(F)c(F)cc4c3)c21` (stereo partly shown) [Example 68], for which the pIC50 on hP2X3 was 7.00 to 9.00; at hP2X2/3 it was 6.00 to 7.00.

Turning to `CC[C@H](C)n1ncc2nc(N3CCN(C(N)=O)CC3)nc(N[C@@H](c3cnc4ccccc4c3)C3CC3)c21` [Example 69], the pIC50 on hP2X3 and at hP2X2/3 was 7.00 to 9.00 each time.

Turning to `CC[C@@H](C)n1ncc2nc(N3CCN(C(N)=O)CC3)nc(N[C@@H](c3cnc4ccccc4c3)C3CC3)c21` [Example 70], the pIC50 at hP2X3 and on hP2X2/3 was 7.00 to 9.00 throughout.

Consider `NC(=O)N1CCN(c2nc(N[C@@H](c3cnc4ccccc4c3)C3CC3)c3c(cnn3C3CCOCC3)n2)CC1` [Example 72], for which the pIC50 at hP2X3 was 7.00 to 9.00; on hP2X2/3 it was 5.00 to 6.00.

Consider `CCC(CC)n1ncc2nc(-n3ccnn3)nc(N[C@@H](c3cnc4ccccc4c3)C3CC3)c21` [Example 74], for which the pIC50 at hP2X3 is 7.00 to 9.00; on hP2X2/3, 6.00 to 7.00.

For the compound `CCC(C)n1ncc2nc(N3CCC(C(N)=O)CC3)nc(N[C@@H](c3cnc4ccccc4c3)C3CC3)c21` (stereo partly shown) [Example 75], the pIC50 on hP2X3 was 7.00 to 9.00; at hP2X2/3, 5.00 to 6.00.

As to `CCC(C)n1ncc2nc(N3CCOC(C#N)C3)nc(N[C@@H](c3cnc4ccccc4c3)C3CC3)c21` (stereo partly shown) [Example 76], the results for the pIC50 at hP2X3 and on hP2X2/3 were 6.00 to 7.00 and 5.00 to 6.00, respectively.

Take `CCC(C)n1ncc2nc(-n3cncn3)nc(N[C@@H](c3cnc4ccccc4c3)C3CC3)c21` (stereo partly shown) [Example 77]: the pIC50 at hP2X3 was 7.00 to 9.00 and 6.00 to 7.00; at hP2X2/3 it was 5.00 to 6.00.

With `CC[C@H](C)n1ncc2nc(N3CCN(C(N)=O)CC3)nc(NC(c3ccc4c(cnn4CC)c3)C3CC3)c21` (stereo partly shown) [Example 80], the pIC50 is 7.00 to 9.00 on hP2X3 and 5.00 to 6.00 at hP2X2/3.

For the compound `CC[C@H](C)n1ncc2nc(N3CCN(C(C)=O)CC3)nc(NC(CO)c3cnc4ccccc4c3)c21` (stereo partly shown) [Example 81], the values for the pIC50 on hP2X3 and at hP2X2/3 were 7.00 to 9.00 and 6.00 to 7.00, respectively.

As for `CC[C@H](C)n1ncc2nc(N3CCN(C(C)=O)CC3)nc(NC(COC)c3cnc4ccccc4c3)c21` (stereo partly shown) [Example 82], the pIC50 on hP2X3 is 7.00 to 9.00; on hP2X2/3, 5.00 to 6.00.

In the case of `CC[C@H](C)n1ncc2nc(N3CCN(C(N)=O)CC3)nc(NC(c3cnc4ccccc4n3)C3CC3)c21` (stereo partly shown) [Example 83], the pIC50 at hP2X3 was 7.00 to 9.00; at hP2X2/3, 5.00 to 6.00.

On to `CCC(C)n1ncc2nc(N3CCN(C(N)=O)CC3)nc(N[C@H](C)c3cn4ccc(C)cc4n3)c21` (stereo partly shown) [Example 84], for which the pIC50 at hP2X3 is 7.00 to 9.00; at hP2X2/3, 5.00 to 6.00.

Take `CCC(C)n1ncc2nc(N3CCN(C(N)=O)CC3)nc(N[C@H](C)c3cnc4ccccc4c3)c21` (stereo partly shown) [Example 85]: the pIC50 on hP2X3 was 7.00 to 9.00; on hP2X2/3, 6.00 to 7.00.

Take `CC(C1CC1)n1ncc2nc(N3CCN(C(N)=O)CC3)nc(N[C@@H](c3cnc4ccccc4c3)C3CC3)c21` (stereo partly shown) [Example 86]: the pIC50 at hP2X3 and on hP2X2/3 was 7.00 to 9.00 throughout.

Regarding `CCC(C)n1ncc2nc(N3CCN(C(C)=O)CC3)nc(N[C@H](C)c3cnc4ccccc4c3)c21` (stereo partly drawn) [Example 89, 1-{4-[1-sec-Butyl-7-((R)-1-quinolin-3-yl-ethylamino)-1H-pyrazolo[4,3-d]pyrimidin-5-yl]-piperazin-1-yl}-ethanone], the pIC50 on hP2X3 is 7.00 to 9.00; on hP2X2/3 it was 6.00 to 7.00.

For orientation: pIC50 means −log10 of the IC50, conventionally taken in molar units.
